Assay results reported in patent publication US6914045B2, “Glycopeptide antibiotics” (Wyeth Holdings Corporation, priority 2001, dated 2005).
In brackets after ≈: the same amount, converted by molar mass.

Columns and labels:
Experiment in all cases: in vitro antibacterial evaluation, MIC by broth dilution
Type in all cases: cell-based
[1] = system: Enterococcus sp.; conditions: broth dilution, 18 hours at 35° C.
Summary of the method: (§1)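 Read-out: the lowest concentration at which the test strain fails to grow. Serial dilutions (64-0.06 μg/mL) in Muller-Hinton II […], 5×10^5 CFU/mL inoculum, NCCLS M7-A2 procedure.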

[2] = system: Staphylococcus sp.; conditions: broth dilution, 18 hours at 35° C.
Summary of the method: as §1

[3] = system: Escherichia coli; conditions: 18 hours at 35° C.
Summary of the method: as §1

[4] = system: Streptococcus sp.; conditions: broth dilution, 18 hours at 35° C.
Summary of the method: as §1

MIC Enterococcus avium (GC 4558) ([1]; Enterococcus avium (GC 4558)): 0.5 µg/mL (≈ 0.361 µM)
MIC Enterococcus faecalis (ATCC 29212) ([1]; Enterococcus faecalis (ATCC 29212)): 0.5 µg/mL (≈ 0.361 µM)
MIC Enterococcus faecalis (GC 2242) ([1]; Enterococcus faecalis (GC 2242)): 0.5 µg/mL (≈ 0.361 µM)
MIC Enterococcus faecalis (GC 2691) ([1]; Enterococcus faecalis (GC 2691)): 0.5 µg/mL (≈ 0.361 µM)
MIC Enterococcus faecalis (GC 3059) ([1]; Enterococcus faecalis (GC 3059)): 0.5 µg/mL (≈ 0.361 µM)
MIC Enterococcus faecalis (GC 4552) ([1]; Enterococcus faecalis (GC 4552)): 0.5 µg/mL (≈ 0.361 µM)
MIC Enterococcus faecalis (GC 4553) ([1]; Enterococcus faecalis (GC 4553)): 0.5 µg/mL (≈ 0.361 µM)
MIC Enterococcus faecalis (GC 4554) ([1]; Enterococcus faecalis (GC 4554)): 0.5 µg/mL (≈ 0.361 µM)
MIC Enterococcus faecalis (GC 6189) ([1]; Enterococcus faecalis (GC 6189)): 0.5 µg/mL (≈ 0.361 µM)
MIC Enterococcus faecium (GC 2243) ([1]; Enterococcus faecium (GC 2243)): 0.5 µg/mL (≈ 0.361 µM)
MIC Enterococcus faecium (GC 4556) ([1]; Enterococcus faecium (GC 4556)): 0.5 µg/mL (≈ 0.361 µM)
MIC Enterococcus faecium (GC 4557) ([1]; Enterococcus faecium (GC 4557)): 0.5 µg/mL (≈ 0.361 µM)
MIC Enterococcus faecalis (ATCC 29212) ([1]; strain ATCC 29212): 0.5 µg/mL (≈ 0.361 µM)
MIC Enterococcus faecalis (GC 2242) ([1]; strain GC 2242): 0.5 µg/mL (≈ 0.361 µM)
MIC Enterococcus faecium (GC 2243) ([1]; strain GC 2243): 0.5 µg/mL (≈ 0.361 µM)
MIC Enterococcus faecalis (GC 2691) ([1]; strain GC 2691): 0.5 µg/mL (≈ 0.361 µM)
MIC Enterococcus faecalis (GC 3059) ([1]; strain GC 3059): 0.5 µg/mL (≈ 0.361 µM)
MIC Enterococcus faecalis (GC 4552) ([1]; strain GC 4552): 0.5 µg/mL (≈ 0.361 µM)
MIC Enterococcus faecalis (GC 4553) ([1]; strain GC 4553): 0.5 µg/mL (≈ 0.361 µM)
MIC Enterococcus faecalis (GC 4554) ([1]; strain GC 4554): 0.5 µg/mL (≈ 0.361 µM)
MIC Enterococcus faecium (GC 4556) ([1]; strain GC 4556): 0.5 µg/mL (≈ 0.361 µM)
MIC Enterococcus faecium (GC 4557) ([1]; strain GC 4557): 0.5 µg/mL (≈ 0.361 µM)
MIC Enterococcus avium (GC 4558) ([1]; strain GC 4558): 0.5 µg/mL (≈ 0.361 µM)
MIC Enterococcus faecalis (GC 6189) ([1]; strain GC 6189): 0.5 µg/mL (≈ 0.361 µM)
MIC Coagulase Negative Staphylococcus (GC 4547) [2]: 4 µg/mL (≈ 2.89 µM)
MIC Coagulase Negative Staphylococcus (GC 4548) [2]: 4 µg/mL (≈ 2.89 µM)
MIC Coagulase Negative Staphylococcus (GC 4549) [2]: 4 µg/mL (≈ 2.89 µM)
MIC Coagulase Negative Staphylococcus (GC 4551) [2]: 8 µg/mL (≈ 5.78 µM)
MIC Coagulase Negative Staphylococcus (GC 6257) [2]: 2 µg/mL (≈ 1.45 µM)
MIC Staphylococcus aureus (ATCC 29213) [2]: 0.5 µg/mL (≈ 0.361 µM)
MIC Staphylococcus aureus (GC 1131) [2]: 0.5 µg/mL (≈ 0.361 µM)
MIC Staphylococcus aureus (GC 3051) [2]: 0.5 µg/mL (≈ 0.361 µM)
MIC Staphylococcus aureus (GC 3053) [2]: 0.5 µg/mL (≈ 0.361 µM)
MIC Staphylococcus aureus (GC 4541) [2]: 0.5 µg/mL (≈ 0.361 µM)
MIC Staphylococcus aureus (GC 4542) [2]: 0.5 µg/mL (≈ 0.361 µM)
MIC Staphylococcus aureus (GC 4544) [2]: 0.5 µg/mL (≈ 0.361 µM)
MIC Staphylococcus aureus (GC 4545) [2]: 0.5 µg/mL (≈ 0.361 µM)
MIC Staphylococcus aureus-SMITH (GC 4543) [2]: 0.5 µg/mL (≈ 0.361 µM)
MIC Coagulase Negative Staphylococcus (GC 4547) ([2]; strain GC 4547): 4 µg/mL (≈ 2.89 µM)
MIC Coagulase Negative Staphylococcus (GC 4548) ([2]; strain GC 4548): 4 µg/mL (≈ 2.89 µM)
MIC Coagulase Negative Staphylococcus (GC 4549) ([2]; strain GC 4549): 4 µg/mL (≈ 2.89 µM)
MIC Coagulase Negative Staphylococcus (GC 4551) ([2]; strain GC 4551): 8 µg/mL (≈ 5.78 µM)
MIC Coagulase Negative Staphylococcus (GC 6257) ([2]; strain GC 6257): 2 µg/mL (≈ 1.45 µM)
MIC Staphylococcus aureus-SMITH (GC 4543) ([2]; strain SMITH GC 4543): 0.5 µg/mL (≈ 0.361 µM)
MIC Staphylococcus aureus (ATCC 29213) ([2]; strain ATCC 29213): 0.5 µg/mL (≈ 0.361 µM)
MIC Staphylococcus aureus (GC 1131) ([2]; strain GC 1131): 0.5 µg/mL (≈ 0.361 µM)
MIC Staphylococcus aureus (GC 3051) ([2]; strain GC 3051): 0.5 µg/mL (≈ 0.361 µM)
MIC Staphylococcus aureus (GC 3053) ([2]; strain GC 3053): 0.5 µg/mL (≈ 0.361 µM)
MIC Staphylococcus aureus (GC 4541) ([2]; strain GC 4541): 0.5 µg/mL (≈ 0.361 µM)
MIC Staphylococcus aureus (GC 4542) ([2]; strain GC 4542): 0.5 µg/mL (≈ 0.361 µM)
MIC Staphylococcus aureus (GC 4544) ([2]; strain GC 4544): 0.5 µg/mL (≈ 0.361 µM)
MIC Staphylococcus aureus (GC 4545) ([2]; strain GC 4545): 0.5 µg/mL (≈ 0.361 µM)
MIC Escherichia coli (ATCC 25922) ([3]; strain ATCC 25922): >0.5 µg/mL
MIC Escherichia coli (GC 4559) ([3]; strain GC 4559): >0.5 µg/mL
MIC Escherichia coli (GC 4560) ([3]; strain GC 4560): 0.5 µg/mL (≈ 0.361 µM)
MIC Streptococcus agalactiae (GC 4564) ([4]; Streptococcus agalactiae (GC 4564)): 0.5 µg/mL (≈ 0.361 µM)
MIC Streptococcus pneumoniae (ATCC 6301) ([4]; Streptococcus pneumoniae (ATCC 6301)): 0.12 µg/mL (≈ 0.0867 µM)
MIC Streptococcus pneumoniae (GC 1894) ([4]; Streptococcus pneumoniae (GC 1894)): 0.12 µg/mL (≈ 0.0867 µM)
MIC Streptococcus pneumoniae (GC 4565) ([4]; Streptococcus pneumoniae (GC 4565)): 0.12 µg/mL (≈ 0.0867 µM)
MIC Streptococcus pyogenes (GC 4563) ([4]; Streptococcus pyogenes (GC 4563)): 0.12 µg/mL (≈ 0.0867 µM)
MIC Streptococcus pneumoniae (ATCC 6301) ([4]; strain ATCC 6301): 0.12 µg/mL (≈ 0.0867 µM)
MIC Streptococcus pneumoniae (GC 1894) ([4]; strain GC 1894): 0.12 µg/mL (≈ 0.0867 µM)
MIC Streptococcus pyogenes (GC 4563) ([4]; strain GC 4563): 0.12 µg/mL (≈ 0.0867 µM)
MIC Streptococcus agalactiae (GC 4564) ([4]; strain GC 4564): 0.5 µg/mL (≈ 0.361 µM)
MIC Streptococcus pneumoniae (GC 4565) ([4]; strain GC 4565): 0.12 µg/mL (≈ 0.0867 µM)
SMILES: CC(c1ccccc1)C1NC(=O)CNC(=O)C(CO)NC(=O)C(C(O)C2CNC(=N)N2C2OC(CO)C(O)C(O)C2O)NC(=O)C(C(O)C2CNC(=N)N2)NC(=O)C(Cc2ccc(OC3OC(CO)C(OC4OC(CO)C(O)C5OC(c6ccccc6)OC45)C(O)C3O)cc2)NC1=O (single isomer, unassigned) [Example 104b, Cyclo[glycyl-β-methylphenylalanyl-O-[4-O-(2,3-O-benzylidenehexopyranosyl)hexopyranosyl]-tyrosyl-3-(2-iminoimidazolidin-4-yl)seryl-3-(3-hexopyranosyl-2-iminoimidazolidin-4-yl)-serylseryl]]
MIC Staphylococcus haemolyticus (GC 4546) [2]: 0.5 µg/mL (≈ 0.361 µM)
MIC Staphylococcus haemolyticus (GC 4546) ([2]; strain GC 4546): 0.5 µg/mL (≈ 0.361 µM)
